Data: patent US20080044428A1, “Glycosylphosphatidylinositol Glycan Signalling Via Integrins Functioning as Glycan Specific Receptors” (THE WALTER AND ELIZA HALL INSTITUTE OF MEDICAL RES, priority 2004, published 2008)

Columns and labels:
[1] = tested on: αMβ2-integrin, also known as CR3 or Mac-1; test: FACS binding of fluoresceinated conjugates to CHO cells transfected with αMβ2-integrin; settings: FACS analysis, CHO-Mac1 cells
Source text: (§1) Sham conjugation procedures were also followed substituting cysteine for glycan.

[2] = tested on: sham-transfected CHO cells (CHO-Neo); test: FACS binding of fluoresceinated conjugates to sham-transfected CHO cells; settings: FACS analysis
Source text: as §1

αMβ2-integrin, also known as CR3 or Mac-1, sequence (P05107 23-769, other chains not shown): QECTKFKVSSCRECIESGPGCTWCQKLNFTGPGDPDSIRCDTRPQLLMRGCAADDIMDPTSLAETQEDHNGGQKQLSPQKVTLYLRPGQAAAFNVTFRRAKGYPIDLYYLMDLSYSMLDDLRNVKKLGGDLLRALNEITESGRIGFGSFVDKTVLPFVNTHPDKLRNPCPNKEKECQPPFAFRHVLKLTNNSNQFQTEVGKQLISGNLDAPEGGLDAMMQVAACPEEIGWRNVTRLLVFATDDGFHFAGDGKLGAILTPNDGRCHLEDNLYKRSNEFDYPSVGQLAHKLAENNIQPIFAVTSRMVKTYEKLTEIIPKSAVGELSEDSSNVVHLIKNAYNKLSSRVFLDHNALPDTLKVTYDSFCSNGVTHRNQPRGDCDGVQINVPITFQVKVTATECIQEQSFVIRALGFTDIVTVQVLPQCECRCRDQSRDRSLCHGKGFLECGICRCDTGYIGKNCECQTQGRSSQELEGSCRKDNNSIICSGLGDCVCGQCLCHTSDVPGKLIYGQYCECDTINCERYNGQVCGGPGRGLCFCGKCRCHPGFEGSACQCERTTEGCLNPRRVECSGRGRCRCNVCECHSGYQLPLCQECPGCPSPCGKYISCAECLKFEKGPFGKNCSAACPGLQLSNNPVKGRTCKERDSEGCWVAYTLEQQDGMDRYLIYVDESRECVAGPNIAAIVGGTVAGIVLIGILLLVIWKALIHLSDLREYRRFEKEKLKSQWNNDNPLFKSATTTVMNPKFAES

With “fluoresceinated BSA-cysteine: sham conjugate of BSA carrier protein substituting cysteine for glycan, fluoresceinated” as the substance, how does the “binding to CHO cells transfected with αMβ2-integrin” value [1] read?
The value was 0.69%.

What about the “binding to sham-transfected CHO cells (CHO-Neo)” value [2] of the same substance?
The value was 0.4%.
